Measured values from patent US12540131B2 (Merck Sharp & Dohme LLC, priority 2019, dated 2026).

Each compound was assayed against GST tagged truncated human mutant G2019S LRRK2 (Homo sapiens (Human), UniProt Q5S007, G2019S) (assay: LRRK2 Km ATP LanthaScreen Assay). Conditions: G2019S LRRK2, 134 μM ATP (Km ATP), mean values.
GST tagged truncated human mutant G2019S LRRK2, sequence (Q5S007 970-2527 G2019S): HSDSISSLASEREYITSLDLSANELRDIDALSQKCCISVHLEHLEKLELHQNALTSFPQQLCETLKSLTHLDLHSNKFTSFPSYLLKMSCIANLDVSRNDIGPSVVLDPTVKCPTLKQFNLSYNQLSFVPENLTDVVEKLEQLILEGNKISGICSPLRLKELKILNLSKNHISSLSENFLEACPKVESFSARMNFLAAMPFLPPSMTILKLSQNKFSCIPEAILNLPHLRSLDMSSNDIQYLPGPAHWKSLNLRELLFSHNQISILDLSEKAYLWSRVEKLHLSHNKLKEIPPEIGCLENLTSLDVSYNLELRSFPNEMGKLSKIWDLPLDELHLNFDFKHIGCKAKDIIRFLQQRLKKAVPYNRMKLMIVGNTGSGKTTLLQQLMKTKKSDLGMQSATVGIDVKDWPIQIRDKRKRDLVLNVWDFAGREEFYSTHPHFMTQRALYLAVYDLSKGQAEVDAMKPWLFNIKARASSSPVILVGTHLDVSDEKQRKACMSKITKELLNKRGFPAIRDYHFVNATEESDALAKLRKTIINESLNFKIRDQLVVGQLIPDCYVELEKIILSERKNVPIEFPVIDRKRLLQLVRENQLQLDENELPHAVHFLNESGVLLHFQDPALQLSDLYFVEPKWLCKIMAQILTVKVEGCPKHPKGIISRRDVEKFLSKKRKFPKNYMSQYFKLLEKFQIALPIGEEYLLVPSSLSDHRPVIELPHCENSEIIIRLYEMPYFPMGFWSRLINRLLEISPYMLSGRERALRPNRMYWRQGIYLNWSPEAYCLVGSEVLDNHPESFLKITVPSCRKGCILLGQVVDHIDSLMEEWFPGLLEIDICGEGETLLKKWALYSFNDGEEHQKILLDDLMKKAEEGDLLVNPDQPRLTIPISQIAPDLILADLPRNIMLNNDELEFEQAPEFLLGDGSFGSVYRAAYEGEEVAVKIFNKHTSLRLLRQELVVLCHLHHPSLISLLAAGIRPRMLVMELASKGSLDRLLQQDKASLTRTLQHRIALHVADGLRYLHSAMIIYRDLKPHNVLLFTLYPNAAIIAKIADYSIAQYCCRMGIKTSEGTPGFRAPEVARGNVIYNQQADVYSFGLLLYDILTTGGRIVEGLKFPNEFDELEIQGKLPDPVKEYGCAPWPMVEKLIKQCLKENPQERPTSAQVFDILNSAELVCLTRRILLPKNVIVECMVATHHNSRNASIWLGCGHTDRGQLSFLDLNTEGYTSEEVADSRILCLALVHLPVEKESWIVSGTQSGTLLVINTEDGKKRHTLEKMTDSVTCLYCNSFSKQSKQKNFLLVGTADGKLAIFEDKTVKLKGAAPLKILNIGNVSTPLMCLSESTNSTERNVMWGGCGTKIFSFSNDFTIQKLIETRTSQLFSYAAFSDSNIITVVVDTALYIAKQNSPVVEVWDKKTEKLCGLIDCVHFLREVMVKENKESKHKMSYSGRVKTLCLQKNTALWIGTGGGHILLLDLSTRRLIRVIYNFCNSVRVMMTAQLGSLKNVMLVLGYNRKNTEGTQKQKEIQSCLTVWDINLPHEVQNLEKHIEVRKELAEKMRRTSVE
Assay type: biochemical
Method in brief: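 Enzyme (GST-tagged, truncated) was preincubated with compound for 15 min at RT in 50 mM Tris pH 8.5, 10 mM MgCl2, 0.01% Brij-35, 1 mM EGTA, 2 mM DTT and 0.05 mM orthovanadate. Fluorescein-LRRKtide and 134 μM ATP (Km) were then added for 90 min. EDTA and Tb-anti-pERM antibody stopped the reaction; the TR-FRET 520/495 ratio gave 4-parameter IC50s, reported as mean pIC50.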
`CC1OCC1N1CCC(c2cc3nc(Nc4cnn(CC(C)(C)O)c4Cl)ncc3cc2Cl)CC1` (single isomer, unassigned) [Ex-4.76, (2R,3R) or (2S,3S) or (2S,3R) or (2R,3S) 1-[5-chloro-4-({6-chloro-7-[1-(2-methyloxetan-3-yl)piperidin-4-yl]quinazolin-2-yl}amino)-1H-pyrazol-1-yl]-2-methylpropan-2-ol] was tested, and the “LRRK2 pIC50” value was >9.20. `Cc1cc2cnc(Nc3cnn(C4CC4(F)F)c3Cl)nc2cc1[C@@H]1CCN([C@H]2COC[C@H]2O)C[C@H]1F` (single isomer, unassigned) [Ex-4.145, (R)(3S,4S)(3S,4S) or (R)(3S,4S)(3R,4R) or (R)(3R,4R)(3S,4S) or (R)(3R,4R)(3R,4R) or (S)(3S,4S)(3S,4S) or (S)(3S,4S)(3R,4R) or (S)(3R,4R)(3S,4S) or (S)(3R,4R)(3R,4R) 4-[4-(2-{[5-chloro-1-(2,2-difluorocyclopropyl)-1H-pyrazol-4-yl]amino}-6-methylquinazolin-7-yl)-3-fluoropiperidin-1-yl]oxolan-3-ol] was tested, and the “LRRK2 pIC50” value was >9.20. `Clc1cc2cnc(Nc3cnn(CC4CCC4)c3Cl)nc2cc1C1CCN(C2COC2)CC1` [Ex-4.19, 6-chloro-N-[5-chloro-1-(cyclobutylmethyl)-1H-pyrazol-4-yl]-7-[1-(oxetan-3-yl)piperidin-4-yl]quinazolin-2-amine] was tested, and the “LRRK2 pIC50” value was 9.17. `Cc1c(Nc2ncc3cc(Cl)c(C4CCN(C5CC[C@H]5O)CC4)cc3n2)cnn1C1CC1` (single isomer, unassigned) [Ex-1.5, (1R,2S) or (1R,2R) or (1S,2S) or (1S,2R) 2-(4-(6-chloro-2-((1-cyclopropyl-5-methyl-1H-pyrazol-4-yl)amino)quinazolin-7-yl)piperidin-1-yl)cyclobutan-1-ol] was tested, and the “LRRK2 pIC50” value was >9.20. In the case of `Clc1cc2cnc(Nc3cnn(C4CCC4)c3Cl)nc2cc1C1CCNCC1` [Ex-4.89, 6-chloro-N-(5-chloro-1-cyclobutyl-1H-pyrazol-4-yl)-7-(piperidin-4-yl)quinazolin-2-amine], the “LRRK2 pIC50” value is reported as 9.13. In the case of `Cc1c(Nc2ncc3cc(Cl)c(C4CCN(C5COC[C@@H]5O)[C@@H](C)C4)cc3n2)cnn1C1CC1` (single isomer, unassigned) [Ex-4.130, (3S,4S)(2S,4R) or (3S,4S)(2S,4S) or (3R,4R)(2S,4R) or (3R,4R)(2S,4S) (3 4-[4-{6-chloro-2-[(1-cyclopropyl-5-methyl-1H-pyrazol-4-yl)amino]quinazolin-7-yl}-2-methylpiperidin-1-yl]oxolan-3-ol], the “LRRK2 pIC50” value is reported as 8.97. With `Cc1cc2cnc(Nc3cnn(C)c3C)nc2cc1[C@@H]1CCN([C@@H]2COC[C@@H]2O)C[C@H]1F` (single isomer, unassigned) [Ex-4.257, (3S,4S)(3S,4S) or (3S,4S)(3R,4R) or (3R,4R)(3S,4S) or (3R,4R)(3R,4R) 4-(4-(2-((1,5-dimethyl-1H-pyrazol-4-yl)amino)-6-methylquinazolin-7-yl)-3-fluoropiperidin-1-yl)tetrahydrofuran-3-ol] the “LRRK2 pIC50” value was >9.20. In the case of `Clc1cc2cnc(Nc3cnn(C4CC4)c3Cl)nc2cc1C1CC2CCC(C1)N2C1COC1` (stereo not drawn) [Ex-4.112, cis or trans 6-chloro-N-(5-chloro-1-cyclopropyl-1H-pyrazol-4-yl)-7-(8-(oxetan-3-yl)-8-azabicyclo[3.2.1]octan-3-yl)quinazolin-2-amine], the “LRRK2 pIC50” value is reported as >9.20. In the case of `CN1CCC(c2cc3nc(Nc4cnn(C5(C)CC5)c4Cl)ncc3cc2Cl)CC1` [Ex-8.14, 6-chloro-N-[5-chloro-1-(1-methylcyclopropyl)-1H-pyrazol-4-yl]-7-(1-methylpiperidin-4-yl)quinazolin-2-amine], the “LRRK2 pIC50” value is reported as >9.20. In the case of `C[C@@]1(N2CC[C@@H](c3cc4nc(Nc5cnn(C6CC6(F)F)c5Cl)ncc4cc3Cl)[C@H](F)C2)COC[C@@H]1O` (single isomer, unassigned) [Ex-4.230, (R)(3S,4S)(3S,4S) or (R)(3S,4S)(3R,4R) or (R)(3R,4R)(3S,4S) or (R)(3R,4R)(3R,4R) or (S)(3S,4S)(3S,4S) or (S)(3S,4S)(3R,4R) or (S)(3R,4R)(3S,4S) or (S)(3R,4R)(3R,4R) 4-(4-(6-chloro-2-((5-chloro-1-(2,2-difluorocyclopropyl)-1H-pyrazol-4-yl)amino)quinazolin-7-yl)-3-fluoropiperidin-1-yl)-4-methyltetrahydrofuran-3-ol], the “LRRK2 pIC50” value is reported as 9.13. With `OC1COCC1n1ncc(Nc2ncc3cc(Cl)c(C4CCN(C5COC5)CC4)cc3n2)c1Cl` (centres unmarked) [Ex-2.48, 4-[5-chloro-4-({6-chloro-7-[1-(oxetan-3-yl)piperidin-4-yl]quinazolin-2-yl}amino)-1H-pyrazol-1-yl]oxolan-3-ol] the “LRRK2 pIC50” value was 8.77. For `Cn1ncc(Nc2ncc3cc(Cl)c([C@@H]4CCN([C@]5(C)COC[C@@H]5O)C[C@H]4F)cc3n2)c1C(F)(F)F` (single isomer, unassigned) [Ex-4.254, (3S,4S)(3S,4S) or (3S,4S)(3R,4R) or (3R,4R)(3S,4S) or (3R,4R)(3R,4R) 4-[4-(6-chloro-2-{[1-methyl-5-(trifluoromethyl)-1H-pyrazol-4-yl]amino}quinazolin-7-yl)-3-fluoropiperidin-1-yl]-4-methyloxolan-3-ol], the “LRRK2 pIC50” value was >9.20. In the case of `Cn1ncc(Nc2ncc3cc(Cl)c([C@@H]4CCN([C@@]5(C)COC[C@H]5O)C[C@H]4F)cc3n2)c1Cl` (single isomer, unassigned) [Ex-4.234, (3S,4S)(3S,4S) or (3S,4S)(3R,4R) or (3R,4R)(3S,4S) or (3R,4R)(3R,4R) 4-(4-{6-chloro-2-[(5-chloro-1-methyl-1H-pyrazol-4-yl)amino]quinazolin-7-yl}-3-fluoropiperidin-1-yl)-4-methyloxolan-3-ol], the “LRRK2 pIC50” value is reported as 7.23.

Same assay, conditions: G2019S LRRK2, 134 μM ATP (Km ATP), mean values; read-out: LRRK2 pIC50 (converted)
`Cc1nsc(Nc2ncc3cc(Cl)c([C@@H]4CCN(C5COC5)C[C@H]4F)cc3n2)c1Cl` (single isomer, unassigned) [Ex-4.87, (3S,4S) or (3R,4R) 6-chloro-N-(4-chloro-3-methyl-1,2-thiazol-5-yl)-7-[3-fluoro-1-(oxetan-3-yl)piperidin-4-yl]quinazolin-2-amine] showed an IC50 of 12.6 nM. `Cc1cc2cnc(Nc3cnn(C4CC4)c3Cl)nc2cc1C1CCN([C@@]2(C)COC[C@H]2O)CC1` (single isomer, unassigned) [Ex-2.36, (3S,4S) or (3R,4R) 4-(4-{2-[(5-chloro-1-cyclopropyl-1H-pyrazol-4-yl)amino]-6-methylquinazolin-7-yl}piperidin-1-yl)-4-methyloxolan-3-ol] was tested, and the IC50 was < 0.631 nM. For `CC1(n2ncc(Nc3ncc4cc(Cl)c(C5CCN(C6COC6)C5)cc4n3)c2Cl)CC1` (single isomer, unassigned) [Ex-4.25, (S) or (R) 6-chloro-N-[5-chloro-1-(1-methylcyclopropyl)-1H-pyrazol-4-yl]-7-[1-(oxetan-3-yl)pyrrolidin-3-yl]quinazolin-2-amine], the IC50 was 3.09 nM. With `Cc1c(Nc2ncc3cc(Cl)c(C4CCN(CC(O)CC(F)(F)F)CC4)cc3n2)cnn1C1CC1` (single isomer, unassigned) [Ex-4.192, (S) or (R) 1-(4-{6-chloro-2-[(1-cyclopropyl-5-methyl-1H-pyrazol-4-yl)amino]quinazolin-7-yl}piperidin-1-yl)-4,4,4-trifluorobutan-2-ol] the IC50 was 1.74 nM.
